Data as given in US3975433A, “1-(2,4-Dimethoxy-phenyl)-3-(2-hydroxyethyl)thiourea” (The Dow Chemical Company, priority 1975, dated 1976).

Key:
Ascaridia galli = experiment: control of Ascaridia galli in chickens (anthelmintic efficacy); assay type: in vivo; conditions: infected chickens; for activity in controlling Ascaridia: tested as controls, result in words, dose not separately stated
Description: The compound was evaluated for activity in the control of Ascaridia galli in chickens. The test chickens following infection with Ascaridia are held for at least 30 days to permit all worms to mature. The compound is evaluated for activity in two chickens which are caged together. The compound may be administered orally as a single oral dose or in the feed for four consecutive days. Anthelmintic efficacy of the compound against Ascaridia is determined by comparing the number of ascarids passed in the feces during the first 72 hours post treatment to the number of worms recovered at necropsy.
The following compounds were also tested as controls and found to have no activity in controlling Ascaridia: 1-(4-methoxyphenyl)-3-(2-hydroxyethyl)thiourea; 1-(2,4-dimethylphenyl)-3-(2-hydroxyethyl)thiourea; 1-(4-methylphenyl)-3-(2-hydroxyethyl)thiourea; and 1-(4-methoxy-2-methylphenyl)-3-(2-hydroxyethyl)thiourea.

reserpine-induced ptosis = experiment: counteraction of reserpine-induced ptosis in mice (antidepressant properties); assay type: in vivo; conditions: for inhibition of reserpine-induced ptosis: mice, 60 mg/kg (i.p.), comparative trials, result in words
Description: The antidepressant properties of the thiourea employed in the methods of the present invention are determined by measuring their ability to counteract ptosis induced in animals by the intraperitoneal injection of reserpine. Graded doses (from about 2.1 to about 100 mg/kg) of the active compounds of this invention are administered intraperitoneally to groups of five mice each, followed 30 minutes later by an intraperitoneal injection of reserpine in an amont which is known to induce ptosis in mice. Similar groups of control mice are administered only reserpine. Forty-five minutes after the administration of reserpine, the presence or absence of ptosis is noted. The percent inhibition of ptosis is noted and the median effective dose (ED50) of each test ingredient which protected 50% of the test mice from reserpine-induced ptosis was calculated.

Cc1ccc(NC(=S)NCCO)c(C)c1 [1-(2,4-dimethylphenyl)-3-(2-hydroxyethyl)thiourea]
activity in controlling Ascaridia (Ascaridia galli): no activity

COc1ccccc1NC(=S)NCCO [1-(2-methoxyphenyl)-3-(2-hydroxyethyl)thiourea]
inhibition of reserpine-induced ptosis (reserpine-induced ptosis): did not inhibit

COc1ccc(NC(=S)NCCO)cc1OC [1-(3,4-dimethoxyphenyl)-3-(2-hydroxyethyl)thiourea]
inhibition of reserpine-induced ptosis (reserpine-induced ptosis): did not inhibit

COc1ccc(NC(=S)NCCO)c(C)c1 [1-(4-methoxy-2-methylphenyl)-3-(2-hydroxyethyl)thiourea]
activity in controlling Ascaridia (Ascaridia galli): no activity

COc1ccc(NC(=S)NCCO)cc1 [1-(4-methoxyphenyl)-3-(2-hydroxyethyl)thiourea]
activity in controlling Ascaridia (Ascaridia galli): no activity

Cc1ccc(NC(=S)NCCO)cc1 [1-(4-methylphenyl)-3-(2-hydroxyethyl)thiourea]
activity in controlling Ascaridia (Ascaridia galli): no activity

COc1ccc(NC(=S)NCCO)c(OC)c1 [Compound 1, 1-(2,4-dimethoxyphenyl)-3-(2-hydroxyethyl)thiourea]
activity (number of worms passed in the feces compared to those found at autopsy) (Ascaridia galli; 150 mg/kg, feces during first 72 hours post treatment): 50%

CN(C)CCCN1c2ccccc2CCc2ccccc21 [Imipramine]
ED50 (reserpine-induced ptosis; Mus musculus, ip, read-out: ED50 (median effective dose which protected 50% of the test mice from reserpine-induced ptosis)): 15 mg/kg
